Source: patent US20220395500A1, “SMALL MOLECULE ACTIVATORS OF INTERFERON REGULATORY FACTOR 3 AND METHODS OF USE THEREOF” (Neuralexo, Inc., priority 2020, published 2022)
Where two headings read alike, the source gives them in different places.

What was measured:
J774-Dual cytotoxicity = type: cell-based, mouse; details: mouse, J774-Dual cells, read-out: J774 cytotox CC50
How it was run: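 CC50 derived from 8-point concentration series in mouse J774-Dual reporter cells, with viability read by CellTiter-Glo in the same plate. Run in parallel with EC50 and ISRE:NFκB ratio determination for cross-species confirmation.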

[1] = tested on: IRF-Lucia luciferase reporter (ISRE) in THP1-Dual cells; experiment: THP1-Dual IRF-Lucia luciferase reporter assay (ISRE activation); type: cell-based, human; details: for EC50: Homo sapiens, THP1-Dual, read-out: THP1 IRF EC50
How it was run: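 Supernatant luminescence from the ISG54/ISRE-driven Lucia reporter was measured after 24 h exposure to 10 μM compound (LPS 313 ng/mL in control wells).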

[2] = tested on: NF-κB-SEAP reporter in THP1-Dual cells; experiment: THP1-Dual NF-κB-SEAP reporter counterscreen; type: cell-based, human; details: Homo sapiens, THP1-Dual, read-out: THP1 NFkB EC50
Method: THP1 Dual (InvivoGen) cell suspensions were cultured in RPMI 1640 (Hyclone, Logan, Utah) supplemented with 10% fetal bovine serum (Hyclone), 100 U/mL Normocin (Invivogen), and 50 U/mL PenStrep (Gibco, Dublin, Ireland) between a density of 7·10^5-2·10^6 cells/mL. Every other passage, media was supplemented with 5 U/mL Blasticidin and 100 U/mL Zeocin to maintain the expression constructs. White, flat-bottom 384-well plates (Greiner, Kremsmunster, Austria, 781080) were seeded with 2.5·10^4 cells/well in a total of 50 μL media containing 5 ng/mL phorbolmyristic acid (PMA) using a Matrix WellMate (Thermo Scientific) dispenser. After 48 hours of incubation at 37° C., media was removed using a BioTek ELx405 CW plate washer set to aspirate and wash each well three times with 65 μL 1×PBS. Plates were reloaded with 50 μL media without PMA and treatments added. Lipopolysaccharide in dimethylsulfoxide (DMSO) was transferred to control wells using a HP D300 microdispenser to a final concentration of 313 ng/mL. Compounds from chemical library plates were copied using a Sciclone (Caliper LifeSciences) mounted with a 384-pin transfer tool to obtain a final concentration of 10 μM. After incubation with treatments for 24 hours, 10 μL of supernatant media from each well was transferred into a white, flat-bottom 384-well plate for luminescence readout and a black-walled, clear flat-bottom 384-well plate for absorbance readout.
Specifically, to enable screening of novel chemical entities (NCEs) in a larger screening effort, a robust high-throughput cell-based assay system for primary hit identification of ISRE activators based on the above-mentioned target validation was desired. Human ISRE activity was verified using a THP-1 monocyte line containing the NF-κB-SEAP and IRF-Lucia luciferase dual reporter (THP1-Dual; Invivogen) that features two reporter genes, SEAP (secreted embryonic alkaline phosphatase) and Lucia luciferase, thereby enabling the simultaneous study of the NF-κB and IRF signalling pathways. The Lucia luciferase reporter is under the control of an ISG54 (interferon-stimulated gene) minimal promoter in conjunction with five IFN-stimulated response elements. The SEAP gene is driven by an IFN-β minimal promoter fused to five copies of the NF-κB consensus transcriptional response element and three copies of the c-Rel binding site. Both reporter proteins are readily measurable in the cell culture supernatant when using QUANTI-LUC™ and QUANTI-Blue SEAP detection reagents.
Using the experimental design and data analysis outlined above, optimized assay conditions were obtained. The responsiveness of the human THP-1 Dual cell line was evaluated in an array of assay conditions to obtain sensitive and reproducible results for the activation of IRF and NF-κB reporters. An optimal plating density and differentiation protocol for these cells was established in a 384-well format. All transfer steps are fully automated using high throughput robotic equipment. Briefly, cells are seeded in differentiation medium using a Matrix WellMate fitted with the WellMate Stacker (Thermo Scientific) and incubated at 37° C. with 5% CO2 for 48 h. Following differentiation, cells are washed using a BioTek ELx405 Select CW plate washer and growth medium added with the Matrix WellMate. Programmed control treatments are added to wells using a D300 digital dispenser fitted with T8+ dispense heads (Hewlett Packard) designed to dispense nanoliter quantities of material. Compounds from library plates are added using a pin tool fitted to a Sciclone ALH 3000 Workstation (Caliper Life Sciences) programmed with Maestro v4.4. After treatment, plates are returned to incubators for 24 hours. To measure reporter expression, supernatant is collected using the Sciclone and dispensed into 2 plates: 1) a white 384-well assay plate for Lucia luminescence measurements and 2) a clear-bottom black 384-well assay plate for SEAP absorbance measurements. […]

[3] = THP1-Dual cytotoxicity (Cell Titer Glo, ATP); type: cell-based, human; details: human, THP1-Dual cells, read-out: Thp1 cytotox CC50
How it was run: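 CC50, the concentration killing half the cells, was derived from ATP-dependent CellTiter-Glo luminescence. Cells were THP1-Dual (human) and compound was tested as an 8-point dose-response series, with viability read in the same plate.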

[4] = tested on: IRF-Lucia luciferase reporter (ISRE) in J774-Dual cells; experiment: J774-Dual IRF-Lucia luciferase reporter assay (ISRE activation); type: cell-based, mouse; details: for EC50: Mus musculus, read-out: J774 IRF EC50
Method: (§1) First, optimal assay conditions and assay quality in 384-well format were determined. As mentioned, the mouse macrophage J774 cell line (J774-Dual, InvivoGen) stably transfected with the same inducible reporters described above (e.g., IRF-Lucia luciferase and NF-κB-SEAP) was used. The responsiveness of the J774-Dual cell line was investigated in an array of assay conditions to obtain sensitive and reproducible results for the activation of the IRF and NF-κB reporters. An optimal plating density and conditions for these cells was established for these cells in a 384-well format. Assay work-flow is similar to that discussed above for the THP1-Dual assay without a need for cell differentiation. Thus, cells are seeded directly in growth medium and incubated at 37° C. in a 5% C02 incubator for 24 hours prior to the programmed treatments being added as described herein.
(§2) The primary high throughput screen used the HTS platform of human THP1 monocyte cells containing the IRF-Lucia luciferase and NFκB-SEAP (secreted embryonic alkaline phosphatase) dual reporter (THP1-Dual, Invivogen), enabling the simultaneous study of the IRF and NFκB signaling pathways respectively. As discussed, the Lucia luciferase reporter gene is under the control of an ISG54 (interferon-stimulated gene) minimal promoter in conjunction with five interferon-stimulated response elements (ISRE). The SEAP gene is driven by an IFNβ minimal promoter fused to five copies of the NFκB consensus transcriptional response element and three copies of the c-Rel binding site. Both IRF-Lucia luciferase and NFκB-SEAP reporter proteins are secreted and readily measurable in the cell culture supernatant when using QUANTI-Luc™ and QUANTI-Blue™ detection reagents, respectively. Identified “hits” were confirmed in a secondary screen with an 8-point dose response curve. Hits were further screened for activity in the mouse using the mouse J774 macrophage-like cell line containing the identical reporter constructs (J774-Dual, Invivogen).
(§3) The OTRADI Small Molecule Library of approximately 246,000 diverse compounds (see below for description) was screened using the THP1-Dual based HTS platform described above. All transfer steps in the screen are fully automated, thus reducing variability. Primary screening included a single data point or dose for each molecule. After data normalization was applied for each assay run, “hit” selection was performed on the plates that pass the quality control (QC) criterion. Hits were defined as samples having values above the activity cutoff determined based on noise level of the assay to reduce false positive rates. In the pilot study discussed above this activity value was >3σ above the ISRE mean with the added criteria of NFκB activation being lower than […] from the mean to identify IRF selective compounds. The ratio of ISRE:NFκB activity was also calculated as a selectivity index for prioritizing hit selection. Primary hits underwent secondary screening to determine the 50% effective concentration (EC50) and 50% cytotoxic concentration (CC50) of these agents using an 8-point dose-response curve in the human THP1-Dual cells. Cytotoxicity was measured in the plate using Cell Titer Glo (Promega). Identified candidate compounds were further screened (orthogonal screen) for cross species activity in the validated mouse J774-Dual assay using an 8-point dose-response format to determine EC50 and CC50 values as well as ISRE:NFκB ratios. A general process flow for the experimental design laid out above is depicted at FIG. 12.

[5] = tested on: NF-κB-SEAP reporter in J774-Dual cells; experiment: J774-Dual NF-κB-SEAP reporter assay; type: cell-based, mouse; details: for EC50: Mus musculus, read-out: J774 NFkB EC50
Method: as §1, §2, §3

[6] = Human Reporter Cell Line, 8-point dose response
[7] = J774, Mouse Reporter Cell Line J774
[8] = J774, Mouse Reporter Cell Line, 8-point dose response

| Structure (SMILES) | EC50 [1, 6] [µM] | CC50 ([3]; Human Reporter Cell Line) [µM] | CC50 (J774-Dual cytotoxicity; Mouse Reporter Cell Line J774) [µM] | EC50 ([1]; Human Reporter Cell Line THP1) [µM] | EC50 ([2]; Human Reporter Cell Line THP1) [µM] | CC50 ([3]; Human Reporter Cell Line THP1) [µM] | other results |
| --- | --- | --- | --- | --- | --- | --- | --- |
| CCOc1cccc(COc2ccc(C(=O)Nc3ccc(N4CCN(C(=O)c5cccs5)CC4)cc3)cn2)c1 [NA-71] | 3.33 | > 10 |  |  |  |  | CC50 (J774-Dual cytotoxicity; Mouse Reporter Cell Line): > 10 µM; EC50 [2, 6]: 6.57 µM |
| Cc1cc2nc(-c3ccc(C)c(NC(=O)c4ccc([N+](=O)[O-])cc4)c3)oc2cc1C [ND-71] |  |  | > 25 | 8.49 | 6.94 | > 25 |  |
| Cc1ccc(C(=O)Nc2cc(-c3nc4ccccc4s3)ccc2C)cc1Cl [ND-70] |  |  | > 25 | 4.76 | ~4.33 | 17.4 |  |
| COc1ccc(C(=O)Nc2ccc(O)c(-c3nc4ccccc4s3)c2)cc1[N+](=O)[O-] [ND-65] |  |  | > 25 | 5.39 | 12 | > 25 |  |
| O=C(Nc1ccc(N2CCN(C(=O)c3cccs3)CC2)cc1)c1ccc(OCc2ccc(OC(F)(F)F)cc2)cc1 [NA-34] | 4.42 | > 25 |  |  |  |  | CC50 (J774-Dual cytotoxicity; Mouse Reporter Cell Line): > 25 µM; EC50 [2, 6]: 6.38 µM |
| Cc1c(C(=O)Nc2ccc3oc(-c4cccnc4)nc3c2)cccc1[N+](=O)[O-] [ND-42] |  |  | > 25 | ~0.00225 | ~15.6 | > 25 |  |
| COc1ccc(C(=O)Nc2cc(-c3nc4ccccc4s3)ccc2C)cc1OC [ND-66] |  |  | > 25 |  | ~0.66 | 17.9 | J774 IRF % activation at peak ([4]; Mouse Reporter Cell Line J774, at peak): ~32.86%; EC50 [4, 7]: ~28.6 µM |
| COc1cccc2c1C(=O)c1c(O)c3c(c(O)c1C2=O)C[C@@](O)(C(C)=O)C[C@@H]3O[C@H]1C[C@H](N)[C@H](O)[C@H](C)O1 [OTR-0000353-001 (Daunorubicin), Daunorubicin, reference compound] |  |  |  |  |  |  | Average ISRE/NFκB (Range) ([1]; human THP1 pilot screen, 10 μM, 3 screens): 0.7 (0.2-1.0); Average ISRE % Activation ([1]; human THP1 pilot screen, 10 μM, 24 hours, percent of LPS activation signal +/− SD, 3 screens): 4.0 +/− 1.8%; Average ISRE/NFκB (Range) ([4]; mouse J774-Dual pilot screen, 3 screens): 0.1 (0.09-0.18); Average ISRE % Activation ([4]; mouse J774-Dual pilot screen, percent of LPS activation signal +/− SD, 3 screens): 5.4 +/− 1.6%; ISRE activation in both THP1-Dual and J774-Dual screens ([4]; pilot screens): cross-species ISRE activity; NF-κB activation in J774 screen ([5]; J774-Dual pilot screen): high NF-κB activity |
| Cc1ccc(C(=O)Nc2cc(-c3nc4cc(C(C)C)ccc4o3)ccc2C)cc1C [ND-103] |  |  |  |  | 25 |  | EC50 [5, 7]: 9.17 µM |
| Cc1cc2nc(-c3ccc(C)c(NC(=O)c4ccc([N+](=O)[O-])cc4Cl)c3)oc2cc1C [ND-102] |  |  |  | 24.7 | 57.9 |  |  |
| COc1ccc(-c2nc3ccccc3s2)cc1NC(=O)c1ccc([N+](=O)[O-])cc1Cl [ND-67] |  |  | > 25 | 0.401 | ~12.3 | 8.87 |  |
| COc1ccc(NC(=O)c2cc(NC(=O)c3cccs3)ccc2N2CCOCC2)cc1 [NB-14] |  |  | > 25 | 6.9 |  | > 25 | EC50 [5, 7]: 11.3 µM |
| COc1ccc(C(=O)Nc2ccc(N3CCN(C(=O)c4cccs4)CC3)cc2)c2ccccc12 [NA-15] | 5.89 | > 25 |  |  |  |  | CC50 (J774-Dual cytotoxicity; Mouse Reporter Cell Line): > 25 µM; EC50 [5, 8]: 1.63 µM |
| COC(=O)Cc1ccc(NC(=O)c2ccc(NC(=O)c3ccco3)cc2)cc1 [NC-3] | 4.13 | > 25 |  |  |  |  | CC50 (J774-Dual cytotoxicity; Mouse Reporter Cell Line): > 25 µM; EC50 [2, 6]: ~6.13 µM |
| O=C(Nc1ccc(N2CCN(C(=O)c3cccs3)CC2)cc1)c1ccc(OCc2ccccc2)cn1 [NA-60] | 2.23 | 23 |  |  |  |  | EC50 [2, 6]: 2.27 µM; J774 IRF % activation at peak ([4]; Mouse Reporter Cell Line): 33.91%; EC50 [4, 8]: 1.77 µM |
| O=C(Nc1ccc(N2CCN(C(=O)c3cccs3)CC2)cc1)c1ccc(-c2ccccc2)cc1 [NA-19] | 1.02 | 8.49 |  |  |  |  | CC50 (J774-Dual cytotoxicity; Mouse Reporter Cell Line): > 25 µM; EC50 [2, 6]: 1.47 µM |
| COc1ccc(C(=O)Nc2cc(-c3nc4ccccc4s3)ccc2Cl)cc1[N+](=O)[O-] [ND-89] |  |  | > 25 | ~0.496 | 10.6 | > 25 |  |
| Oc1ccc(-c2nc3ccc(O)cc3o2)cc1 [ND-74] |  |  | > 25 |  | 32.5 | > 25 |  |
